{"source": "patent US20170112784A1", "about": "“Method and Medicament for Pain Management” (priority 2007, published 2017)", "key": {"horses [1]": {"tested_on": "horses", "assay": "Trial of methoxyflurane administered to horses at the end of anaesthesia to modify recovery", "type": "in vivo, horse", "set-up": "1st Movt / Stern. / Stnd / Atax / Walk out: unit not given here", "method": "Trial of methoxyflurane administered to horses at the end of anaesthesia, attempting to modify recovery:\n[…] Horses recovering from isoflurane typically attempt to stand in 10 to 15 minutes, usually fall down and try to get back up 2 or 3 times (sometimes violent, resulting in injuries from skin abrasions to fractured limbs) and are then standing 15 to 20 minutes after anaesthetic administration ceased. […] Halothane recoveries are less violent and result in less likelihood of injury.\nInitially trials were also performed in anattempt to determine the dose and duration of MOF administration that would result in improved quality of recovery.\nThe last 8 horses were administered with ever lower doses of MOF for less time with better results (see table below). […] The lowest dose produced a good result."}, "horses [2]": {"tested_on": "horses", "details": "typical; cited from earlier work"}, "[3]": {"details": "horse 472 kgs, 130 Mins. ISO anaesthesia, Methoxy volume not given"}, "[4]": {"details": "horse 338 kgs, 30 Mins. HAL anaesthesia, Methoxy volume not given"}, "[5]": {"details": "horse 492 kgs, 90 Mins. HAL anaesthesia, Methoxy volume not given"}, "[6]": {"details": "horse 332 kgs, 135 Mins. ISO anaesthesia, Methoxy total 200 ml"}, "[7]": {"details": "horse 462 kgs, 135 Mins. ISO anaesthesia, Methoxy total 350 ml"}, "[8]": {"details": "horse 470 kgs, 85 Mins. ISO anaesthesia, Methoxy total 210 ml"}, "[9]": {"details": "horse 492 kgs, 75 Mins. ISO anaesthesia, Methoxy total 540 ml"}, "[10]": {"details": "horse 580 kgs, 16O Mins. ISO anaesthesia, Methoxy total 300 ml"}}, "data": [{"compound": "FC(F)OC(Cl)C(F)(F)F", "note": "(centres unmarked) [ISO, isoflurane]", "values": [{"measurement": "1st Movt", "setting": "horses [1]; [3]", "value": 23}, {"measurement": "Atax", "setting": "horses [1]; [3]", "value": 78}, {"measurement": "Comments", "setting": "horses [1]; [3]", "value": "Try stand at 23"}, {"measurement": "Stern.", "setting": "horses [1]; [3]", "value": 32}, {"measurement": "Stnd", "setting": "horses [1]; [3]", "value": 63}, {"measurement": "Walk out", "setting": "horses [1]; [3]", "value": 100}]}, {"compound": "FC(F)(F)C(Cl)Br", "note": "(centres unmarked) [HAL, halothane]", "values": [{"measurement": "1st Movt", "setting": "horses [1]; [4]", "value": 27}, {"measurement": "Atax", "setting": "horses [1]; [4]", "value": "Fell"}, {"measurement": "Comments", "setting": "horses [1]; [4]", "value": "Stood/fell x 3"}, {"measurement": "Stern.", "setting": "horses [1]; [4]", "value": 30}, {"measurement": "Stnd", "setting": "horses [1]; [4]", "value": 31}, {"measurement": "Walk out", "setting": "horses [1]; [4]", "value": 55}, {"measurement": "1st Movt", "setting": "horses [1]; [5]", "value": 30}, {"measurement": "Atax", "setting": "horses [1]; [5]", "value": 75}, {"measurement": "Comments", "setting": "horses [1]; [5]", "value": "Poor - flip over"}, {"measurement": "Stern.", "setting": "horses [1]; [5]", "value": "50(2)"}, {"measurement": "Stnd", "setting": "horses [1]; [5]", "value": 65}, {"measurement": "Walk out", "setting": "horses [1]; [5]", "value": 85}, {"measurement": "recovery duration in comparison with isoflurane", "setting": "horses [2]", "value": "twice as long as isoflurane"}]}, {"compound": "COC(F)(F)C(Cl)Cl", "note": "[Methoxy, methoxyflurane]", "values": [{"measurement": "1st Movt", "setting": "horses [1]; [6]", "value": 17}, {"measurement": "Atax", "setting": "horses [1]; [6]", "value": 30}, {"measurement": "Comments", "setting": "horses [1]; [6]", "value": "Good"}, {"measurement": "Stern.", "setting": "horses [1]; [6]", "value": 25}, {"measurement": "Stnd", "setting": "horses [1]; [6]", "value": 26}, {"measurement": "Walk out", "setting": "horses [1]; [6]", "value": 41}, {"measurement": "1st Movt", "setting": "horses [1]; [7]", "value": 48}, {"measurement": "Atax", "setting": "horses [1]; [7]", "value": 59}, {"measurement": "Comments", "setting": "horses [1]; [7]", "value": "Still 45 mm then"}, {"measurement": "Stnd", "setting": "horses [1]; [7]", "value": 49}, {"measurement": "Walk out", "setting": "horses [1]; [7]", "value": 75}, {"measurement": "1st Movt", "setting": "horses [1]; [8]", "value": 5}, {"measurement": "Atax", "setting": "horses [1]; [8]", "value": 35}, {"measurement": "Comments", "setting": "horses [1]; [8]", "value": 10, "unit": "x wobble then"}, {"measurement": "Stern.", "setting": "horses [1]; [8]", "value": 14}, {"measurement": "Stnd", "setting": "horses [1]; [8]", "value": 29}, {"measurement": "Walk out", "setting": "horses [1]; [8]", "value": 55}, {"measurement": "1st Movt", "setting": "horses [1]; [9]", "value": 50}, {"measurement": "Atax", "setting": "horses [1]; [9]", "value": 85}, {"measurement": "Comments", "setting": "horses [1]; [9]", "value": "Stood 69- fell"}, {"measurement": "Stern.", "setting": "horses [1]; [9]", "value": 60}, {"measurement": "Stnd", "setting": "horses [1]; [9]", "value": 75}, {"measurement": "Walk out", "setting": "horses [1]; [9]", "value": 100}, {"measurement": "1st Movt", "setting": "horses [1]; [10]", "value": 37}, {"measurement": "Atax", "setting": "horses [1]; [10]", "value": 85}, {"measurement": "Stern.", "setting": "horses [1]; [10]", "value": 60}, {"measurement": "Stnd", "setting": "horses [1]; [10]", "value": 61}, {"measurement": "Walk out", "setting": "horses [1]; [10]", "value": 90}, {"measurement": "quality of recovery", "setting": "horses [1]; initial trials (higher dose, longer administration), horses after isoflurane anaesthesia", "value": "long recoveries with marked ataxia"}, {"measurement": "quality of recovery", "setting": "horses [1]; last 8 horses, ever lower doses for less time", "value": "less ataxia and a better quality recovery"}, {"measurement": "quality of recovery", "setting": "horses [1]; lowest dose, last horse", "value": "good result"}]}]}
